Like-named read-outs stand apart in the source and are kept apart here.

Experimental findings from US20220169628A1 (University of Florida Research Foundation, Incorporated, priority 2019, published 2022) are described below.

One assay concerns MOLT-4 cells. As to the kind of experiment: Cell viability assay, MTS, 48 h, MOLT-4. It counts as cell-based. Particulars: 48 hours, read-out: IC50 (48 hours) MOLT-4. How it is done:
(§1) Acute lymphoblastic leukemia cells (MOLT-4 and RS4; 11) or small cell lung cancer (NCI-H146 or simply H146) were incubated with increasing concentrations of Bcl-xL degraders for 48 h. Cell viability was measured by tetrazolium-based MTS assay.

The next assay deals with RS4;11 cells. Kind of assay: Cell viability assay, MTS, 48 h, RS4;11. Particulars: 48 hours, read-out: IC50 (48 hours) RS4;11. The assay is classed as cell-based. How it is done:
as §1

As a reminder, the IC50 is the midpoint of a concentration-inhibition curve. Consider `Cc1ncsc1-c1ccc([C@H](C)NC(=O)[C@@H]2C[C@@H](O)CN2C(=O)[C@@H](NC(=O)CCCCCCCC(=O)N2CCN(CC3(C)CCC(c4ccc(Cl)cc4)=C(CN4CCN(c5ccc(C(=O)NS(=O)(=O)c6ccc(N[C@H](CCN7CCOCC7)CSc7ccccc7)c(S(=O)(=O)C(F)(F)F)c6)cc5)CC4)C3)CC2)C(C)(C)C)cc1` (stereo partly drawn) [degrader #18, (2S,4R)-1-((2S)-2-(9-(4-((4′-chloro-4-methyl-6-((4-(4-(((4-(((R)-4-morpholino-1-(phenylthio)butan-2-yl)amino)-3-((trifluoromethyl)sulfonyl)phenyl)sulfonyl)carbamoyl)phenyl)piperazin-1-yl)methyl)-2,3,4,5-tetrahydro-[1,1′-biphenyl]-4-yl)methyl)piperazin-1-yl)-9-oxononanamido)-3,3-dimethylbutanoyl)-4-hydroxy-N—((S)-1-(4-(4-methylthiazol-5-yl)phenyl)ethyl)pyrrolidine-2-carboxamide], for which the half-maximal inhibitory concentration (IC50) with MOLT-4 cells (Homo sapiens, MOLT-4, 48 h) is below 50 nM; in the assay with RS4;11 cells (Homo sapiens, RS4-11, 48 h) it was below 50 nM.
`Cc1ncsc1-c1ccc([C@H](C)NC(=O)[C@@H]2C[C@@H](O)CN2C(=O)[C@@H](NC(=O)COCCOCCOCCOCCOC(=O)N2CCC(c3ccc(Cl)cc3)=C(CN3CCN(c4ccc(C(=O)NS(=O)(=O)c5ccc(N[C@H](CCN6CCOCC6)CSc6ccccc6)c(S(=O)(=O)C(F)(F)F)c5)cc4)CC3)C2)C(C)(C)C)cc1` [compound 87, (S)-16-((2S,4R)-4-hydroxy-2-(((S)-1-(4-(4-methylthiazol-5-yl)phenyl)ethyl)carbamoyl)pyrrolidine-1-carbonyl)-17,17-dimethyl-14-oxo-3,6,9,12-tetraoxa-15-azaoctadecyl 4-(4-chlorophenyl)-5-((4-(4-(((4-(((R)-4-morpholino-1-(phenylthio)butan-2-yl)amino)-3-((trifluoromethyl)sulfonyl)phenyl)sulfonyl)carbamoyl)phenyl)piperazin-1-yl)methyl)-3,6-dihydropyridine-1(2H)-carboxylate]: the IC50 was above 500 nM in the assay with MOLT-4 cells (Homo sapiens, MOLT-4, 48 h) and above 500 nM with RS4;11 cells (Homo sapiens, RS4-11, 48 h).
Consider `Cc1ncsc1-c1ccc([C@H](C)NC(=O)[C@@H]2C[C@@H](O)CN2C(=O)[C@@H](NC(=O)CCCCCCCC(=O)N2CCN(C(=O)C3(C)CCC(c4ccc(Cl)cc4)=C(CN4CCN(c5ccc(C(=O)NS(=O)(=O)c6ccc(N[C@H](CCN7CCOCC7)CSc7ccccc7)c(S(=O)(=O)C(F)(F)F)c6)cc5)CC4)C3)CC2)C(C)(C)C)cc1` (stereo partly drawn) [compound 66, (2S,4R)-1-((2S)-2-(9-(4-(4′-chloro-4-methyl-6-((4-(4-(((4-(((R)-4-morpholino-1-(phenylthio)butan-2-yl)amino)-3-((trifluoromethyl)sulfonyl)phenyl)sulfonyl)carbamoyl)phenyl)piperazin-1-yl)methyl)-2,3,4,5-tetrahydro-[1,1′-biphenyl]-4-carbonyl)piperazin-1-yl)-9-oxononanamido)-3,3-dimethylbutanoyl)-4-hydroxy-N—((S)-1-(4-(4-methylthiazol-5-yl)phenyl)ethyl)pyrrolidine-2-carboxamide], for which the IC50 was below 50 nM with MOLT-4 cells (Homo sapiens, MOLT-4, 48 h) and below 50 nM in the assay with RS4;11 cells (Homo sapiens, RS4-11, 48 h).
Regarding `Cc1ncsc1-c1ccc([C@H](C)NC(=O)[C@@H]2C[C@@H](O)CN2C(=O)[C@@H](NC(=O)C[C@H]2CC[C@H](CC(=O)N3CCC4(CCN(CC5(C)CCC(c6ccc(Cl)cc6)=C(CN6CCN(c7ccc(C(=O)NS(=O)(=O)c8ccc(N[C@H](CCN9CCOCC9)CSc9ccccc9)c(S(=O)(=O)C(F)(F)F)c8)cc7)CC6)C5)CC4)CC3)CC2)C(C)(C)C)cc1` (relative stereo) [degrader #39], the results for the IC50 with MOLT-4 cells and in the assay with RS4;11 cells were 50 to 150 nM and below 50 nM, respectively.
`CC1(CNC(=O)CCCCNc2cccc3c2C(=O)N(C2CCC(=O)NC2=O)C3=O)CCC(c2ccc(Cl)cc2)=C(CN2CCN(c3ccc(C(=O)NS(=O)(=O)c4ccc(N[C@H](CCN5CCOCC5)CSc5ccccc5)c(S(=O)(=O)C(F)(F)F)c4)cc3)CC2)C1` (stereo partly drawn) [compound 70, 4-(4-((4′-chloro-4-((5-((2-(2,6-dioxopiperidin-3-yl)-1,3-dioxoisoindolin-4-yl)amino)pentanamido)methyl)-4-methyl-3,4,5,6-tetrahydro-[1,1′-biphenyl]-2-yl)methyl)piperazin-1-yl)-N-((4-(((R)-4-morpholino-1-(phenylthio)butan-2-yl)amino)-3-((trifluoromethyl)sulfonyl)phenyl)sulfonyl)benzamide]: the IC50 in the assay on MOLT-4 cells (Homo sapiens, MOLT-4, 48 h) lay within 50 to 150 nM; in the assay on RS4;11 cells (Homo sapiens, RS4-11, 48 h), 50 to 150 nM.
Turning to `Cc1ncsc1-c1ccc([C@H](C)NC(=O)[C@@H]2C[C@@H](O)CN2C(=O)[C@@H](NC(=O)CCCCCC(=O)NC2CCN(CC3(C)CCC(c4ccc(Cl)cc4)=C(CN4CCN(c5ccc(C(=O)NS(=O)(=O)c6ccc(N[C@H](CCN7CCOCC7)CSc7ccccc7)c(S(=O)(=O)C(F)(F)F)c6)cc5)CC4)C3)CC2)C(C)(C)C)cc1` (stereo partly drawn) [degrader #37, N1-(1-((4′-chloro-4-methyl-6-((4-(4-(((4-(((R)-4-morpholino-1-(phenylthio)butan-2-yl)amino)-3-((trifluoromethyl)sulfonyl)phenyl)sulfonyl)carbamoyl)phenyl)piperazin-1-yl)methyl)-2,3,4,5-tetrahydro-[1,1′-biphenyl]-4-yl)methyl)piperidin-4-yl)-N7-((S)-1-((2S,4R)-4-hydroxy-2-(((S)-1-(4-(4-methylthiazol-5-yl)phenyl)ethyl)carbamoyl)pyrrolidin-1-yl)-3,3-dimethyl-1-oxobutan-2-yl)heptanediamide], the IC50 is 150 to 500 nM with MOLT-4 cells (Homo sapiens, MOLT-4, 48 h) and below 50 nM in the assay with RS4;11 cells (Homo sapiens, RS4-11, 48 h).
For “(2S,4R)-1-((S)-2-(9-(4-(4-chlorophenyl)-5-((4-(4-(((4-(((R)-4-morpholino-1-(phenylthio)butan-2-yl)amino)-3-((trifluoromethyl)sulfonyl)phenyl)sulfonyl)carbamoyl)phenyl)piperazin-1-yl)methyl)-3,6-dihydropyridin-1(2H)-yl)-9-oxononanamido)-3,3-dimethylbutanoyl)-4-hydroxy-N—((S)-1-(4-(4-methylthiazol-5-yl)phenyl)ethyl)pyrrolidine-2-carboxamide [Example 4]”, the figures for the IC50 in the assay on MOLT-4 cells and in the assay with RS4;11 cells were 50 to 150 nM and below 50 nM, respectively.
For `CC1(CNC(=O)CCCCCCCNc2cccc3c2C(=O)N(C2CCC(=O)NC2=O)C3=O)CCC(c2ccc(Cl)cc2)=C(CN2CCN(c3ccc(C(=O)NS(=O)(=O)c4ccc(N[C@H](CCN5CCOCC5)CSc5ccccc5)c(S(=O)(=O)C(F)(F)F)c4)cc3)CC2)C1` (stereo partly drawn) [compound 73, 4-(4-((4′-chloro-4-((8-((2-(2,6-dioxopiperidin-3-yl)-1,3-dioxoisoindolin-4-yl)amino)octanamido)methyl)-4-methyl-3,4,5,6-tetrahydro-[1,1′-biphenyl]-2-yl)methyl)piperazin-1-yl)-N-((4-(((R)-4-morpholino-1-(phenylthio)butan-2-yl)amino)-3-((trifluoromethyl)sulfonyl)phenyl)sulfonyl)benzamide], the IC50 was below 50 nM in the assay on MOLT-4 cells (Homo sapiens, MOLT-4, 48 h) and below 50 nM in the assay on RS4;11 cells (Homo sapiens, RS4-11, 48 h).
